Results from ChEMBL document CHEMBL1201862, “PubChem BioAssay data set” (2004).
Each block holds one compound with its values, some of them ahead of it. Active and inactive are the calls of the source.

Assays:
[1] = Luminescence-based dose response cell-based high throughput screening assay for cytotoxic compounds using the IEC-6 intestinal epithelial cell line. [Related pubchem assays: 1858 (Summary AID.), 1825 (Counterscreen.), 1907 (Confirmation screen.)]; format: functional
[2] = biological target: Sphingosine 1-phosphate receptor 2 (Homo sapiens, UniProt O95136); test: Dose Response Cell Based Assay for Antagonists of the S1P2 Receptor. [Related pubchem assays: 856, 736 ]; format: functional
Cytochrome P450 2C9 = Cytochrome P450 2C9 (Homo sapiens, UniProt P11712)
Cytochrome P450 2C19 = Cytochrome P450 2C19 (Homo sapiens, UniProt P33261); test: Cytochrome panel assay with activity outcomes. Panel member name: p450-cyp2c19 Compounds with AC50 equal or less than 10 uM are considered active; format: functional; conditions: read-out: AC50
[3] = biological target: Mitogen-activated protein kinase 10 (Homo sapiens, UniProt P53779); test: Dose response biochemical screening assay for inhibitors of c-Jun N-Terminal Kinase 3 (JNK3). [Related pubchem assays: 746 ]
[4] = biological target: T1, Aryl hydrocarbon receptor (Homo sapiens, UniProt P35869); test: Luminescence-based cell-based high throughput dose response assay for activators of the Aryl Hydrocarbon Receptor (AHR). [Related pubchem assays: 2796 (Primary screen (AHR activators in singlicate)), 2845 (Confirmation screen (AHR activators in triplicate)), 434939 (Counterscreen (PXR activators in triplicate)), 2804 (Summary (AHR activators))]; format: ADME
T1 sequence (P35869 whole entry): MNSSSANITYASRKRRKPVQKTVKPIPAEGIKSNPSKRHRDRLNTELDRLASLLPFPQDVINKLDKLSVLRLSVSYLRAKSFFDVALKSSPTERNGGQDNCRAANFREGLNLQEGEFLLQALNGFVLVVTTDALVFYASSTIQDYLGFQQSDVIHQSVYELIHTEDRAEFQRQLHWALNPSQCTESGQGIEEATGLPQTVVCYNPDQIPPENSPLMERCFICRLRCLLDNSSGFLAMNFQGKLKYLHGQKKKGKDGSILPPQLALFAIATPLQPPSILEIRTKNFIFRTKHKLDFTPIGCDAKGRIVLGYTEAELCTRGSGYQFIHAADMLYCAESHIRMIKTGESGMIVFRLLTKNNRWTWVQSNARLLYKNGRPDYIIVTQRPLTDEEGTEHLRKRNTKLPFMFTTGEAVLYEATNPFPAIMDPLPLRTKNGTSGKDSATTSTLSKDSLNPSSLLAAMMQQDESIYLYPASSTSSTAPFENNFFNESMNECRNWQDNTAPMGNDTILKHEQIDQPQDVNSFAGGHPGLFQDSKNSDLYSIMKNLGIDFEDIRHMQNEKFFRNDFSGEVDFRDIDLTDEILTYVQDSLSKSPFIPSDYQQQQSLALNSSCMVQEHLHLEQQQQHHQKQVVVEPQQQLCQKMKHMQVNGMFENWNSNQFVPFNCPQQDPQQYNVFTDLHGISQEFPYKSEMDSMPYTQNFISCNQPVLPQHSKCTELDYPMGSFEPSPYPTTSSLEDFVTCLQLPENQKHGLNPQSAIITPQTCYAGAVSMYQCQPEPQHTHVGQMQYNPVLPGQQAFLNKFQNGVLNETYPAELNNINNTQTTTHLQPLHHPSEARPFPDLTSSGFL

[5] = biological target: T2, Tyrosine-protein phosphatase non-receptor type 7 (Homo sapiens, UniProt P35236); test: HePTP tyrosine phosphatase activity blockers – biochemical, absorbance, leukemia target, primary screen (AID 521); format: functional
T2 sequence (P35236 whole entry): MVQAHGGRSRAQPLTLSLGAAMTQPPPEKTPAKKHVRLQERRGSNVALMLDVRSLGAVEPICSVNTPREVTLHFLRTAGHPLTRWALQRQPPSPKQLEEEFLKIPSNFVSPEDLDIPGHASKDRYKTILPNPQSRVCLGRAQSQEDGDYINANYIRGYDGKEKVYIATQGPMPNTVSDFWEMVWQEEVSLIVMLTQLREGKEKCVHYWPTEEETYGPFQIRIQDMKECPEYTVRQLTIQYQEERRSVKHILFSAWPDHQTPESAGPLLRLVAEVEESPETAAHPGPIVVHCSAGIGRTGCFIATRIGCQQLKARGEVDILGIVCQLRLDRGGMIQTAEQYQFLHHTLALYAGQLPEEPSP

[6] = biological target: T3, Corticotropin-releasing factor receptor 2/Corticotropin-releasing factor-binding protein (Homo sapiens, UniProt P24387+Q13324); test: activators of CRF receptor 2 with binding protein – uHTS hits, confirmation (AID 602473); format: functional; conditions: read-out: EC50_Mean
T3 sequence (Q13324 whole entry): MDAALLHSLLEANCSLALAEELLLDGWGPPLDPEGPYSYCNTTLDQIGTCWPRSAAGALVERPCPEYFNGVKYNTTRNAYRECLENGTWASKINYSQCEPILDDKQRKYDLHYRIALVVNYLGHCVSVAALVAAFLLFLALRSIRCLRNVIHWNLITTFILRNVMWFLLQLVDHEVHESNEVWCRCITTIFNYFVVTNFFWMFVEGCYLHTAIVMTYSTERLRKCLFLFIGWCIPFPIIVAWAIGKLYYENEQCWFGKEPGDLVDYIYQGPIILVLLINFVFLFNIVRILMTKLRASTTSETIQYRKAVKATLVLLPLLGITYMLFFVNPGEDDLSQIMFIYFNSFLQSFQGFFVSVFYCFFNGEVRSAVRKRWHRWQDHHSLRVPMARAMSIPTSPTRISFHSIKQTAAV
T3 sequence (P24387 whole entry): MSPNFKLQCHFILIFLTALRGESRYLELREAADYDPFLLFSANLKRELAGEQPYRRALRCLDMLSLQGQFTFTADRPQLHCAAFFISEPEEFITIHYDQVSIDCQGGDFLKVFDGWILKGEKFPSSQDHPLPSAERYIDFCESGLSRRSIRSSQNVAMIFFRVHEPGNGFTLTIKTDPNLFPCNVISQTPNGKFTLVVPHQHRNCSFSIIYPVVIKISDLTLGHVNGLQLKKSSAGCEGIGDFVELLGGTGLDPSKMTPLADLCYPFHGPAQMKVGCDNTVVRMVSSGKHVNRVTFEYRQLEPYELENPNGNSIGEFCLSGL

[7] = fluconazole-exposed Candida albicans growth modulators – fluorescence, retest, confirmation (AID 2467); format: functional, cell-based
[8] = biological target: T4, Heat shock factor protein 1 (Mus musculus, UniProt P38532); test: enhancement of HSF1-driven luciferase signal – cell-based, NIH3T3, luminescence, dose retest, confirmation (AID 435004); format: functional;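 further: stress induced by proteasome inhibitor MG132 added 30 min after compound; luciferase reporter driven by HSF1 response element in NIH3T3 cells; actives raise luminescence as potentiators of the MG132 stress response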
T4 sequence (P38532 whole entry): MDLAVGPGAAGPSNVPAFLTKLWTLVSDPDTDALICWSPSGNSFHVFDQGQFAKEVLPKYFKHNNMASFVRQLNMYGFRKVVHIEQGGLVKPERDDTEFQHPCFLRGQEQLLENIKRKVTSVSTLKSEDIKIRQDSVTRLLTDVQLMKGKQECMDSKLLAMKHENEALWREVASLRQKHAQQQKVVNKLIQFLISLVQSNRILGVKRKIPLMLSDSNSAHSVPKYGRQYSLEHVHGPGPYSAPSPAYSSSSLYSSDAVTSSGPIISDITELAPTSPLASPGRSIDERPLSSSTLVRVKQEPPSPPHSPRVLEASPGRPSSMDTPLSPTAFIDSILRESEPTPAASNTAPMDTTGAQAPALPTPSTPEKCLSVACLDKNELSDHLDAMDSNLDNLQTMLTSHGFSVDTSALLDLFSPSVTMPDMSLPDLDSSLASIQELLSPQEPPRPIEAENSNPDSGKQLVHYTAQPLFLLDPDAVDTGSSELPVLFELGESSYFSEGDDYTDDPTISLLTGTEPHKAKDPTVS

Estrogen receptor beta [9] = biological target: T5, Estrogen receptor beta (Homo sapiens, UniProt Q92731);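 further: recombinant ER-beta bound to coactivator SRC1 peptide in presence of estradiol agonist; inhibitors block coactivator peptide binding and lower the FRET signal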
Estrogen receptor beta [10] = biological target: T5, Estrogen receptor beta; test: blockers of SRC-3 recruitment to ERβ – biochemical, ELISA, streptavidin-HRP readout, orthogonal assay, confirmation (AID 1060)
[11] = biological target: Induced myeloid leukemia cell differentiation protein Mcl-1 (Homo sapiens, UniProt Q07820); format: functional
[12] = HPDE-C7 pancreatic duct cell viability loss – fluorescence, HTS (AID 430); format: functional, cell-based; conditions: Homo sapiens
[13] = viability loss of HPDE-C7K cells – cell-based, fluorescence, HTS, primary screen (AID 431); format: functional; conditions: Homo sapiens
Ephrin type-A receptor 4 = Ephrin type-A receptor 4 (Mus musculus, UniProt Q03137); test: EphA4 ligand-binding antagonists – biochemical, colorimetric, mouse EphA4, primary screen (AID 689); format: functional
[14] = NIH-3T3 fibroblast cytotoxicity, dose response, cytotoxicity control, cell-based, fluorescence, Alamar Blue, secondary assay (AID 2327); format: functional;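 further: NIH-3T3 mouse fibroblasts cultured with fluconazole at 8 µg/mL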

T5 sequence (Q92731 whole entry): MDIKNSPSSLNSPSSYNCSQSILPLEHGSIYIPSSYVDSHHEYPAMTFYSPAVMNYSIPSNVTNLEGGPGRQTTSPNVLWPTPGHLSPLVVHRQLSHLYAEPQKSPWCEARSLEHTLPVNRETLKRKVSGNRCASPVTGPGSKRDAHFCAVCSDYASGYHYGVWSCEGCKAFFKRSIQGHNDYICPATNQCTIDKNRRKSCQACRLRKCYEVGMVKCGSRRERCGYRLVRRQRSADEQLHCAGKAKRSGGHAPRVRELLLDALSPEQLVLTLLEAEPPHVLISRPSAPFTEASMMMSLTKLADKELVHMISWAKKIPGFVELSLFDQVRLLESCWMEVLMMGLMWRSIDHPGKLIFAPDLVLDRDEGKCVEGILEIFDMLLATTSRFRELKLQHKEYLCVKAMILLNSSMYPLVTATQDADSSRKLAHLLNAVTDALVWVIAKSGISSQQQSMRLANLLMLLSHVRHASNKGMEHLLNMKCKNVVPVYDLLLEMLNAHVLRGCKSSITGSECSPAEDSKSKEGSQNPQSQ
Chain of Mitogen-activated protein kinase 10 (P53779 whole entry): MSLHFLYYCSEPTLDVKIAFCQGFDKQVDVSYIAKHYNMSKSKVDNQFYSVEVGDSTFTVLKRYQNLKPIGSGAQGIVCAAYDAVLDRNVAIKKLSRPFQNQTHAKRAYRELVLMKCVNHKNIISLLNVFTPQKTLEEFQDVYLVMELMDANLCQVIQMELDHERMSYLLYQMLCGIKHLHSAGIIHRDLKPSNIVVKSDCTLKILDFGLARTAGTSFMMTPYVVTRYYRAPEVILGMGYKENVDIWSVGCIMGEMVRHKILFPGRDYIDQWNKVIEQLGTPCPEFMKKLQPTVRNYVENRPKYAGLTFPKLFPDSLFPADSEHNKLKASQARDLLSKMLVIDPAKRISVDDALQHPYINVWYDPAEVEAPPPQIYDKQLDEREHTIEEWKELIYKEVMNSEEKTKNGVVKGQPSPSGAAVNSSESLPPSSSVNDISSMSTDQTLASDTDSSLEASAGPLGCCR
Chain of Sphingosine 1-phosphate receptor 2 (O95136 whole entry): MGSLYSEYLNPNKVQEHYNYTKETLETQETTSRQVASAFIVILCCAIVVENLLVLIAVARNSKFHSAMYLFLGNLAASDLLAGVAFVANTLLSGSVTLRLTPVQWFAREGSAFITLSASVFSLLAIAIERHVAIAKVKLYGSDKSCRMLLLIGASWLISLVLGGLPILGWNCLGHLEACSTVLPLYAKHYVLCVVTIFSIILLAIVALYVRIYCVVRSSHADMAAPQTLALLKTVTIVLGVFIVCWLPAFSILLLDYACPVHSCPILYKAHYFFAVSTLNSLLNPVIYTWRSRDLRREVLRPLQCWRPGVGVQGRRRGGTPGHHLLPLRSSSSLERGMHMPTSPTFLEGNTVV
Chain of Cytochrome P450 2C19 (P33261 whole entry): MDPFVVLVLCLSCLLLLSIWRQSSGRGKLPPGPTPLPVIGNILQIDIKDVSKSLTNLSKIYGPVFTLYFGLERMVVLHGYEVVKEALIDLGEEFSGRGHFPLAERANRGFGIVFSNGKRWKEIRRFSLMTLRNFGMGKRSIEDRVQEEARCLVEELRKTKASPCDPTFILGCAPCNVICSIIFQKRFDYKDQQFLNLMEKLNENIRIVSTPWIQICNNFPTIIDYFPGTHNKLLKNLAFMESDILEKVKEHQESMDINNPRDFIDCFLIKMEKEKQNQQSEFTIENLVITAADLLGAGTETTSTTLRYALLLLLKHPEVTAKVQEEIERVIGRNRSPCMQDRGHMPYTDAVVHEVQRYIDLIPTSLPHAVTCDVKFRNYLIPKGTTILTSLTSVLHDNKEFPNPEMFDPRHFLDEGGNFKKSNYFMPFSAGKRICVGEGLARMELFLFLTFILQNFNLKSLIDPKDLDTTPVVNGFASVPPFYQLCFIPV
Chain of Induced myeloid leukemia cell differentiation protein Mcl-1 (Q07820 whole entry): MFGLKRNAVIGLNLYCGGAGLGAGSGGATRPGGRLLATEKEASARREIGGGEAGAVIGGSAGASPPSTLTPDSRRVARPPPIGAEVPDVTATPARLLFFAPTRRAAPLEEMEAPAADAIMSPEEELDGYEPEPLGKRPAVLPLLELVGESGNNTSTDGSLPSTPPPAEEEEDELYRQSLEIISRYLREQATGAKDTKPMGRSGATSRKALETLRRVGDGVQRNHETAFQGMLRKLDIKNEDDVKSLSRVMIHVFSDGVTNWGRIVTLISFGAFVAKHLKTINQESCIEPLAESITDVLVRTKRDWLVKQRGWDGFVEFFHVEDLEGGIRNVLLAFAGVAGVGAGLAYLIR
Chain of Ephrin type-A receptor 4 (Q03137 whole entry): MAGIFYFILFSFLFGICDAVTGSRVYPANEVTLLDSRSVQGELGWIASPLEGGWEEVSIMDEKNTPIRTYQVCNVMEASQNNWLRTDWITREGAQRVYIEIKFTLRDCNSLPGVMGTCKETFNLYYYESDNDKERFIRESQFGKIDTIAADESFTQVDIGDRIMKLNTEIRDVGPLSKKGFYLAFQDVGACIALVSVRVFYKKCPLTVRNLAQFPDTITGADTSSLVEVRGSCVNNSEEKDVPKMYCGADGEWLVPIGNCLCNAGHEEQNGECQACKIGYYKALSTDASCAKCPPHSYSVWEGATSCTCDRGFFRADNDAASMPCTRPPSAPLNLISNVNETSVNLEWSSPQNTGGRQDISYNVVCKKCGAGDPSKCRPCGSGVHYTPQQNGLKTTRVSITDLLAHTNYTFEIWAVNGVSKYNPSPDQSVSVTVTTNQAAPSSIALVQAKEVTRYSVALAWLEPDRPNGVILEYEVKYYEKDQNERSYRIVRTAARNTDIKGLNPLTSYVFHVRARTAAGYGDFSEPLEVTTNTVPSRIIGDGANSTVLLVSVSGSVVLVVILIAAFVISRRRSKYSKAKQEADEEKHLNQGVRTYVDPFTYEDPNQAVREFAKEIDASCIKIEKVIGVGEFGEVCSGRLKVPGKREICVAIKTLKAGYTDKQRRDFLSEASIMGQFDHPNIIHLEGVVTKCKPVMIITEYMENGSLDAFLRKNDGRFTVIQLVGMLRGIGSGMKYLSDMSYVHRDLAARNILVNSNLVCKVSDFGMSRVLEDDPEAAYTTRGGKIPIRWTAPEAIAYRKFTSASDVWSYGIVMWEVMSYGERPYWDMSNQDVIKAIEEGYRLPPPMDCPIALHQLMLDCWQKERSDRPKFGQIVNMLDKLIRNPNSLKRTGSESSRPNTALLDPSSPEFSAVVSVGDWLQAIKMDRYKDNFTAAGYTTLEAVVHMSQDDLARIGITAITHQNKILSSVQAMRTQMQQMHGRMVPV
Chain of Cytochrome P450 2C9 (P11712 whole entry): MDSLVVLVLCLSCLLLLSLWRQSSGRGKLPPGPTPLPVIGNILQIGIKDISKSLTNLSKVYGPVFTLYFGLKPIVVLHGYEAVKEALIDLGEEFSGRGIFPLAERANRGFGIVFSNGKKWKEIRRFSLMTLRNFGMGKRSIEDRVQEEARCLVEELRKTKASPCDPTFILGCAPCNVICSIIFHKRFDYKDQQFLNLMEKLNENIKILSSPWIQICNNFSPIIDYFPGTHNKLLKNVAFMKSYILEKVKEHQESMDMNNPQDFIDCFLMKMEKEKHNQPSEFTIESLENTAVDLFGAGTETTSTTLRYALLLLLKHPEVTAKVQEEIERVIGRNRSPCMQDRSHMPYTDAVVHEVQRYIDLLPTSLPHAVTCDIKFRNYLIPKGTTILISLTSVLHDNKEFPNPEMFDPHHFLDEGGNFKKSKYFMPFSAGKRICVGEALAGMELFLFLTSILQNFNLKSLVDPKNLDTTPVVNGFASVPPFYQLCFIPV

IC50 [3]: 18 µM (not active)
Structure (SMILES): O=C1c2ccccc2C(=O)C1c1ccncc1

IC50 [3]: 41.2 µM (not active)
Structure (SMILES): O=C(CNC(=O)c1ccc(Br)o1)Nc1cccc(-c2cnc3ccccc3n2)c1

EC50 [4]: 3.41 µM (active)
Structure (SMILES): O=C(/C=C\c1cccs1)c1c(O)ccc2ccc(=O)oc12

The next lines start with the compound.

Structure (SMILES): CCC[C@@H](CNC)NC[C@H](Cc1ccccc1)NCCCCc1ccccc1
IC50 [1]: 5.4 µM (active)

Structure (SMILES): O=C(O)c1sc2cc(C(F)(F)F)cnc2c1-c1ccccc1
IC50 [2]: > 30 µM (not active) | AC50 (Cytochrome P450 2C9): 28.2 µM (inconclusive) | AC50 (Cytochrome P450 2C19): 39.8 µM (inconclusive)

Structure (SMILES): CN1CCc2c(sc3c2C(=O)NC(c2cccs2)N3)C1 (stereo not drawn)
IC50 [5]: > 100 µM (not active) | EC50 [6]: > 53 µM (inactive)

Structure (SMILES): COc1cc(C(Nc2ccccn2)c2ccc3ccc(C)nc3c2O)cc(OC)c1O (stereo not drawn)
EC50 [7]: > 38 µM (not active) | EC50 [8]: 4.22 µM (active) | IC50 (Estrogen receptor beta [9]): 3.13 µM (active) | IC50 (Estrogen receptor beta [10]): > 109 µM (not active) | IC50 [11]: 0.786 µM (active) | EC50 [12]: 4.68 µM (active) | EC50 [13]: 4.83 µM (active) | IC50 (Ephrin type-A receptor 4): 2.02 µM (active) | EC50 [14]: 5.42 µM (inconclusive)
